According to patent publication US20200093128A1, “ACIDULATED SURFACTANT COMPOSITIONS AND METHODS OF REDUCING MICROBIAL LOAD” (The United States of America, as represented by the …, priority 2018, published 2020):
Where two headings read alike, the source gives them in different places. Marks after values point to notes of the source that are not given here.

How the values were obtained:
[1] = tested on: Salmonella, E. coli, Listeria monocytogenes, coliforms or aerobic mesophilic bacteria; assay: Previous studies: produce treated with NaClO, summary of Table 1; assay type: cell-based; settings: Table 1 studies, average 154.2 ppm free chlorine, average treatment time 5.42 min
[2] = tested on: Salmonella and E. coli O157:H7; settings: strawberries, 6.44 pH-adjusted free chlorine, 198 ppm; cited from earlier work
Listeria innocua = settings: Lettuce, Cl 10 PPM, 5.0 min, Francis and O'Beime (2002); cited from earlier work
Listeria Monocytogenes = assay: BS EN 1276 test for sanitizer efficacy of NaClO; assay type: cell-based; settings: 0.03% bovine serum, 5 min, 22±1° C.
From the text: (§1) This example illustrates an embodiment of the effectiveness of the inventive composition. […]. The four most acid-resistant strains out of the fourteen were selected for use in this study. These four strains consisted of cattle isolate #'s 199, 758, 851, and 859, provided by Dr. T. G. Nagaraja (Distinguished Microbiology Professor, Kansas State University, Department of Veterinary Medicine). Five outbreak strains of Listeria monocytogenes were used, including L499, L502, L008, L2624, and L2625, provided by Dr. Bassam Annous (USDA-ARS-ERRC). Four serovars of S. enterica (Salmonella Newport H1275 (ERRC culture collection)), St. Paul 02-517-1 (cantaloupe outbreak), Stanley H0558 (CDC stool sample, 1995 sprout outbreak), and Montevideo G4639 (1993 tomato outbreak)) were also utilized. All isolates (except for the L. monocytogenes outbreak strains) were selected for spontaneous mutants resistant to 100 ppm of the antibiotic compound nalidixic acid (L. monocytogenes is naturally resistant to 100 ppm nalidixic acid and so was plated on media containing 100 ppm nalidixic acid without need for selection of spontaneous mutants). Isolates were individually incubated for 24 h at 37° C. in 10 mL of Tryptic Soy Broth (Difco, Sparks, Md.)+100 ppm nalidixic acid (TSBN), as an antimicrobial marker and to preclude potential contamination on plates. Suspensions were centrifuged at 1980×g for 10 min, and resuspended in 5 ml of sterile deionized water and vortexed vigorously for 3 minutes. All strains of each individual species of bacteria were composited in a single sterile 500 mL beaker for inoculation of grape tomatoes.
(§2) L. monocytogenes was plated on Thermo Scientific™ Brilliance™ Listeria Agar (BLA, ThermoFisher Scientific, Fairlawn, N.J.)+100 ppm nalidixic acid without the addition of BLA antimicrobial supplements+0.1% sodium pyruvate (to aid in recovering injured cells) (see e.g., Gurtler, J. B. & L. R. Beuchat, (2005) Appl. Environ. Microbiol. 71:7661-7669; Gurtler, J. B. & Kornacki, J. L. (2009) Lett. Appl. Microbiol. 49:503-509; Wesche, A. M., et al. (2009) J. Food Prot. 72, 1121-1138). Salmonella was plated on tryptic soy agar (Difco)+100 mg/L nalidixic acid+0.1% sodium pyruvate+80 mg/L X-α-Gal (5-Bromo-4-Chloro-3-indolyl-α-D-galactopyranoside) (Research Products Intl., Mt. Prospect, Ill.)+100 mg/L Isopropyl-β-D-thiogalactopyranoside (IPTG, Fisher Scientific). X-α-Gal induces a green color change by salmonellae colonies. E. coli O157:H7 was plated tryptic soy agar (Difco)+100 mg/L nalidixic acid+0.1% sodium pyruvate+175 mg/L red/salmon-Gal (6-Chloro-3-indolyl-β-D-galactopyranoside)+100 mg/L IPTG. Red/salmon-Gal induces a pink color change by E. coli colonies.
(§3) BS EN 1276 Test for Sanitizer Efficacy of Sodium Hypochlorite (NaClO). The British Standard, European Normalization Method 1276 for sanitizers was chosen to evaluate the efficacy low level NaClO. The level of free chlorine ranged from 10 to 48 ppm free chlorine, as tested with the LaMotte Model CL-BR 3624 titration kit (Chestertown, Md.). The BS EN 1276 method as well as the French AFNOR NFT 72170 method has been traditionally used to evaluate sanitizer effectiveness (see e.g., Jacquet, C., and Reynaud, A. (1994) Int. J. Food Microbiol. 22:79-83; Taylor, J. H., et al. (1999) Int. J. Appl. Microbiol. 87:718-725). The BS EN 1276 method involves adding 0.03% bovine albumin to represent clean conditions and 0.3% albumin for dirty conditions. Briefly, 1 ml of either 0.03% or 0.3% bovine serum was added to a sterile 15 ml test tube, followed by 1 ml of the ca. 9 log CFU/ml test solution of each bacterial composite. The suspension was permitted to sit for 2 min and then 8 ml of an appropriately diluted NaClO solution was added to the 2 ml of bacteria-bovine solution suspension where concentrations of sanitizer solution were adjusted to mathematically account for the 2:8 dilution with the pathogen suspension at 10 ppm, 16 ppm, and 48 ppm. All tests were conducted at 22±1° C. […]

E. coli O157:H7 [3] = assay: BS EN 1276 test for sanitizer efficacy of NaClO; assay type: cell-based; settings: 0.03% bovine serum, 5 min, 22±1° C.
From the text: as §1, §2, §3

Salmonella [4] = settings: Parsley, Cl 100 PPM, 5 min, Lapidot et al. (2006); cited from earlier work
E. coli = settings: Cl 100 PPM, 10.0 min, cited from earlier work
Total Coliforms [5] = settings: watercress, 200 ppm NaOCl, pH-unadjusted; cited from earlier work
E. coli O157:H7 [6] = assay type: cell-based; settings: dip-inoculated grape tomatoes, 100 ml wash, 2 min
From the text: as §1, with “Suspensions were centrifuged at 1980×g for 10 min, and resuspended in 5 ml of sterile deionized water and vortexed vigorously for 3 minutes. All strains of each individual species of bacteria were composited in a single sterile 500 mL beaker for inoculation of grape tomatoes.” left out

Total Coliforms [7] = settings: Lettuce, Cl 200 PPM, 10 min, Nascimento et al. (2003); cited from earlier work
[8] = tested on: Salmonella and E. coli O157:H7; settings: tomato stem scars, 200 ppm free chlorine, pH-unadjusted; cited from earlier work
pH of wash solution = assay type: physicochemical; settings: wash solutions of the grape tomato test (Table 4)
Salmonella [9] = assay type: cell-based, S. enterica; settings: dip-inoculated grape tomatoes, 100 ml wash, 2 min
From the text: as §1, with “Suspensions were centrifuged at 1980×g for 10 min, and resuspended in 5 ml of sterile deionized water and vortexed vigorously for 3 minutes. All strains of each individual species of bacteria were composited in a single sterile 500 mL beaker for inoculation of grape tomatoes.” left out

L. monocytogenes [10] = settings: cited from earlier work
EHEC = settings: cited from earlier work
Salmonella [11] = assay: BS EN 1276 test for sanitizer efficacy of NaClO; assay type: cell-based, S. enterica; settings: 0.03% bovine serum, 5 min, 22±1° C.
From the text: as §1, with “tomatoes. […]” for “tomatoes.”

L. monocytogenes [12] = assay type: cell-based, Listeria monocytogenes; settings: dip-inoculated grape tomatoes, 100 ml wash, 2 min
From the text: as §1, with “Suspensions were centrifuged at 1980×g for 10 min, and resuspended in 5 ml of sterile deionized water and vortexed vigorously for 3 minutes. All strains of each individual species of bacteria were composited in a single sterile 500 mL beaker for inoculation of grape tomatoes.” left out

Aerobic Bacteria = settings: cited from earlier work
EHEC & Salmonella = settings: Lettuce, Cl 200 PPM, cited from earlier work
[13] = tested on: S. enterica, L. monocytogenes or E. coli O157:H7; assay: BS EN 1276 chlorine test, summary over the three pathogens; assay type: cell-based; settings: 48 ppm chlorine, 5 min, 3% bovine albumin (dirty conditions)

## OCl [NaClO, sodium hypochlorite]
[1]
  average log reduction in previous studies: 1.24 log CFU
[2]
  inactivated log CFU: 1.86 log CFU
Listeria innocua
  Inactivation: 1.5 Log CFU
Listeria Monocytogenes; 10 ppm free chlorine
  log CFU/mL reduction: 1.22 B ± 0.19 log CFU/mL
Listeria Monocytogenes; 16 ppm free chlorine
  log CFU/mL reduction: 2.77 A ± 0.36 log CFU/mL
Listeria Monocytogenes; 48 ppm free chlorine
  log CFU/mL reduction: 0.53 ± 0.21 log CFU/mL
E. coli O157:H7 [3]; 10 ppm free chlorine
  log CFU/mL reduction: 0.64 B^a ± 0.32^b log CFU/mL
E. coli O157:H7 [3]; 16 ppm free chlorine
  log CFU/mL reduction: 1.79 A ± 0.21 log CFU/mL
E. coli O157:H7 [3]; 48 ppm free chlorine
  log CFU/mL reduction: 0.33 ± 0.47^c log CFU/mL
Salmonella [4]
  Inactivation: 1.7 Log CFU
E. coli; Cabbage/Parsley, Seymot et al. (2002)
  Inactivation: ca 1.45 Log CFU
E. coli; Lettuce, Seymor et al. 2002
  Inactivation: 0.72 Log CFU
Total Coliforms [5]
  inactivation of pathogens: 1.1 log
E. coli O157:H7 [6]
  reduction, E. coli O157:H7: 2.92 ± 0.38 BC log CFU/g
Total Coliforms [7]
  Inactivation: <2.0 Log CFU
[8]
  inactivation of pathogens: 1.53 log
pH of wash solution
  pH Values: 9.88
Salmonella [9]
  reduction, Salmonella: 2.60 ± 0.25 B log CFU/g
L. monocytogenes [10]; Lettuce (4° C.), Cl 200 PPM, 10.0 min, Zhang & Farber (1996)
  Inactivation: 1.3 Log CFU
L. monocytogenes [10]; Lettuce, Cl 20 PPM, 0.5 min, Li et al. (2002)
  Inactivation: 1.2 Log CFU
L. monocytogenes [10]; Lettuce, Cl 100 PPM, 1.0 min, Hellstrom et al. (2006)
  Inactivation: 0.7 Log CFU
L. monocytogenes [10]; Lettuce, Cl 100 PPM, 5.0 min, Akbas and Oimez (2007)
  Inactivation: 1.7 Log CFU
EHEC; Lettuce & Spinach, Cl 600 PPM, 3.0 min, Niemera, 2007
  Inactivation: 0.5 Log CFU
EHEC; Lettuce, Cl 20 PPM, 1.0 min, Li et al. (2001)
  Inactivation: 1.1 Log CFU
Salmonella [11]; 10 ppm free chlorine
  log CFU/mL reduction: 1.20 B ± 0.10 log CFU/mL
Salmonella [11]; 16 ppm free chlorine
  log CFU/mL reduction: 2.72 A ± 0.53 log CFU/mL
Salmonella [11]; 48 ppm free chlorine
  log CFU/mL reduction: 0.25 ± 0.25 log CFU/mL
L. monocytogenes [12]
  reduction, L. monocytogenes: 3.16 ± 0.61 B log CFU/g
Aerobic Bacteria; Diced Tomato, Cl 200 PPM, 0.5 min, Simmons et al. (2006)
  Inactivation: 0.00 Log CFU
Aerobic Bacteria; Lettuce, Cl 75 PPM, 5 min, Lu et al. (2007)
  Inactivation: 2.0 Log CFU
Aerobic Bacteria; Lettuce, Cl 150 PPM, 10 min, Koseki et al. (2001)
  Inactivation: 2.0 Log CFU
Aerobic Bacteria; Lettuce, Cl 200 PPM, 0.5 min, Simmons et al. (2006)
  Inactivation: 1.30 Log CFU
Aerobic Bacteria; Lettuce, Cl 200 PPM, 10.0 min, Kondo et al. (2006)
  Inactivation: 0.9 Log CFU
EHEC & Salmonella; 1.0 min, Koseki et al. (2003)
  Inactivation: ca. 1.0 Log CFU
EHEC & Salmonella; 10.0 min, Kondo et al. (2006)
  Inactivation: 1.2 Log CFU
[13]
  inactivated log: less than 0.76 log
